Assay results: ChEMBL document CHEMBL3885881, “DrugMatrix”

Organism: Rattus norvegicus
Experiment: DrugMatrix - Regimen: Daily Repeat
Type: toxicity, organism-based, Sprague-Dawley
Parameters: regimen Daily Repeat, gender Male, age 6-8 weeks
Settings: in vivo, po, route oral GAVAGE, […]; for ABSOLUTE BASOPHIL / ABSOLUTE EOSINOPHIL / ABSOLUTE LYMPHOCYTE / ABSOLUTE MONOCYTE / ABSOLUTE SEGMENTED NEUTROPHIL / BASOPHIL / EOSINOPHIL / ERYTHROCYTE COUNT / HEMATOCRIT / HEMOGLOBIN / LEUKOCYTE COUNT / LYMPHOCYTE / MEAN CORPUSCULAR HEMOGLOBIN / MEAN CORPUSCULAR HEMOGLOBIN CONCENTRATION / MEAN CORPUSCULAR VOLUME / MONOCYTE / NEUTROPHIL / NUCLEATED RED BLOOD CELLS / PLATELET COUNT: tissue Blood; for ALANINE AMINOTRANSFERASE / ALBUMIN / ALKALINE PHOSPHATASE / ASPARTATE AMINOTRANSFERASE / BLOOD UREA NITROGEN / CARBON DIOXIDE / CHLORIDE / CHOLESTEROL / CREATINE PHOSPHOKINASE / CREATININE / GLUCOSE / LACTATE DEHYDROGENASE / LIPASE / PHOSPHORUS / POTASSIUM / SODIUM / TOTAL BILIRUBIN / TOTAL PROTEIN / URIC ACID: tissue Plasma
[1] = 0 mg/kg, 72 h, dose level Control, time 3 day
[2] = 0 mg/kg, 120 h, dose level Control, time 5 day
[3] = 0.6 mg/kg, 72 h, dose level Low, time 3 day

## O=C(O)CCCc1ccc(N(CCCl)CCCl)cc1 [CHLORAMBUCIL]
[1]
  ABSOLUTE BASOPHIL: 0 CELLS/uL
  ABSOLUTE EOSINOPHIL: 104.17 CELLS/uL
  ABSOLUTE LYMPHOCYTE: 14547 CELLS/uL
  ABSOLUTE MONOCYTE: 292 CELLS/uL
  ABSOLUTE SEGMENTED NEUTROPHIL: 1640.17 CELLS/uL
  BASOPHIL: 0%
  EOSINOPHIL: 0.67%
  ERYTHROCYTE COUNT: 5.35 x10E6/uL
  HEMATOCRIT: 33.67%
  HEMOGLOBIN: 13.38 G/DL
  LEUKOCYTE COUNT: 16.58 x10E3/uL
  LYMPHOCYTE: 87.5%
  MEAN CORPUSCULAR HEMOGLOBIN: 25.05 pg
  MEAN CORPUSCULAR HEMOGLOBIN CONCENTRATION: 39.78 G/DL
  MEAN CORPUSCULAR VOLUME: 62.97 fL
  MONOCYTE: 1.83%
  NEUTROPHIL: 10%
  NUCLEATED RED BLOOD CELLS: 0 /100WBC
  PLATELET COUNT: 1274.5 x10E3/uL
  ALANINE AMINOTRANSFERASE: 76.83 u/L
  ALBUMIN: 3.97 G/DL
  ALKALINE PHOSPHATASE: 347 u/L
  ASPARTATE AMINOTRANSFERASE: 97.17 u/L
  BLOOD UREA NITROGEN: 14.33 mg/dL
  CARBON DIOXIDE: 25.5 mmol/L
  CHLORIDE: 100.33 MEQ/L
  CHOLESTEROL: 68.67 mg/dL
  CREATINE PHOSPHOKINASE: 659.17 u/L
  CREATININE: 0.32 mg/dL
  GLUCOSE: 160.67 mg/dL
  LACTATE DEHYDROGENASE: 271.5 u/L
  LIPASE: 11.67 u/L
  PHOSPHORUS: 10.65 mg/dL
  POTASSIUM: 5.95 MEQ/L
  SODIUM: 139.65 MEQ/L
  TOTAL BILIRUBIN: 0.2 mg/dL
  TOTAL PROTEIN: 5.72 G/DL
  URIC ACID: 1.37 mg/dL
[2]
  ABSOLUTE BASOPHIL: 0 CELLS/uL
  ABSOLUTE EOSINOPHIL: 331.5 CELLS/uL
  ABSOLUTE LYMPHOCYTE: 15021.67 CELLS/uL
  ABSOLUTE MONOCYTE: 376.5 CELLS/uL
  ABSOLUTE SEGMENTED NEUTROPHIL: 3070.33 CELLS/uL
  BASOPHIL: 0%
  EOSINOPHIL: 1.83%
  ERYTHROCYTE COUNT: 5.24 x10E6/uL
  HEMATOCRIT: 33.22%
  HEMOGLOBIN: 13.2 G/DL
  LEUKOCYTE COUNT: 18.8 x10E3/uL
  LYMPHOCYTE: 79.67%
  MEAN CORPUSCULAR HEMOGLOBIN: 25.17 pg
  MEAN CORPUSCULAR HEMOGLOBIN CONCENTRATION: 39.73 G/DL
  MEAN CORPUSCULAR VOLUME: 63.38 fL
  MONOCYTE: 2%
  NEUTROPHIL: 16.5%
  NUCLEATED RED BLOOD CELLS: 0 /100WBC
  PLATELET COUNT: 1142.67 x10E3/uL
  ALANINE AMINOTRANSFERASE: 52.5 u/L
  ALBUMIN: 3.9 G/DL
  ALKALINE PHOSPHATASE: 284.5 u/L
  ASPARTATE AMINOTRANSFERASE: 81.33 u/L
  BLOOD UREA NITROGEN: 16 mg/dL
  CARBON DIOXIDE: 25.33 mmol/L
  CHLORIDE: 99.5 MEQ/L
  CHOLESTEROL: 74.83 mg/dL
  CREATINE PHOSPHOKINASE: 448.33 u/L
  CREATININE: 0.37 mg/dL
  GLUCOSE: 164.17 mg/dL
  LACTATE DEHYDROGENASE: 290.67 u/L
  LIPASE: 6.83 u/L
  PHOSPHORUS: 11.5 mg/dL
  POTASSIUM: 6.28 MEQ/L
  SODIUM: 139.5 MEQ/L
  TOTAL BILIRUBIN: 0.13 mg/dL
  TOTAL PROTEIN: 5.55 G/DL
  URIC ACID: 1.12 mg/dL
[3]
  ABSOLUTE BASOPHIL: 0 CELLS/uL
  ABSOLUTE EOSINOPHIL: 134 CELLS/uL
  ABSOLUTE LYMPHOCYTE: 11100 CELLS/uL
  ABSOLUTE MONOCYTE: 438.67 CELLS/uL
  ABSOLUTE SEGMENTED NEUTROPHIL: 1260.67 CELLS/uL
  BASOPHIL: 0%
  EOSINOPHIL: 1%
  ERYTHROCYTE COUNT: 5.4 x10E6/uL
  HEMATOCRIT: 34.47%
  HEMOGLOBIN: 13.6 G/DL
  LEUKOCYTE COUNT: 12.93 x10E3/uL
  LYMPHOCYTE: 86%
  MEAN CORPUSCULAR HEMOGLOBIN: 25.2 pg
  MEAN CORPUSCULAR HEMOGLOBIN CONCENTRATION: 39.43 G/DL
  MEAN CORPUSCULAR VOLUME: 63.87 fL
  MONOCYTE: 3.33%
  NEUTROPHIL: 9.67%
  NUCLEATED RED BLOOD CELLS: 0 /100WBC
  PLATELET COUNT: 1307.67 x10E3/uL
  ALANINE AMINOTRANSFERASE: 68 u/L
  ALBUMIN: 3.93 G/DL
  ALKALINE PHOSPHATASE: 423 u/L
  ASPARTATE AMINOTRANSFERASE: 81.33 u/L
  BLOOD UREA NITROGEN: 13.33 mg/dL
  CARBON DIOXIDE: 25.33 mmol/L
  CHLORIDE: 101 MEQ/L
  CHOLESTEROL: 71 mg/dL
  CREATINE PHOSPHOKINASE: 316.67 u/L
  CREATININE: 0.26 mg/dL
  GLUCOSE: 153.33 mg/dL
  LACTATE DEHYDROGENASE: 99.67 u/L
  LIPASE: 13 u/L
  PHOSPHORUS: 11.17 mg/dL
  POTASSIUM: 5.8 MEQ/L
  SODIUM: 140.37 MEQ/L
  TOTAL BILIRUBIN: 0.17 mg/dL
  TOTAL PROTEIN: 5.67 G/DL
  URIC ACID: 1.1 mg/dL
